Experimental data taken from article PMC5089653, “Isoxazole‐Derived Amino Acids are Bromodomain‐Binding Acetyl‐Lysine Mimics: Incorporation into Histone H4 Peptides and Histone H3” (Angewandte Chemie (International Ed. in English), 2016).
Like-named read-outs stand apart in the source and are kept apart here.

Assays:
BRD4(1) = target: T1, BRD4(1) (Homo sapiens, UniProt O60885); assay: AlphaScreen assay inhibiting the interaction of BRD4(1) with biotinylated H4(KAc)4; format: binding; conditions: for Percentage inhibition of bromodomain-KAc recognition, BRD4(1), H4(KAc)4 / inhibition at 0.004 µM: AlphaScreen, average of triplicate, BRD4(1) 10 nM, biotin-H4(KAc)4 4 nM
T1 construct: the phylogenetically diverse BAZ2A, BRD4(1), and BRD9 bromodomains; His tag (pNIC28-Bsa4 vector; purified on HisTrap) (N); made in house; host or cells: E. coli BL21 (DE3) Gold
Excerpt: (§1) Supporting Table S1: Percentage inhibition of bromodomain-KAc recognition by isoxazole-containing amino acids.
(§2) Inhibitory values of unprotected amino acids given as average percentage inhibition (buffer […]
(§3) measurements in triplicate (AlphaScreen). n.d. value not determined. Inhibition values highlighted as a heatmap from green (low inhibition) to red (high inhibition). […]
(§4) Protein expression and purification: bromodomain-containing constructs in pNIC28-Bsa4 vector backbones were transformed into E. coli BL21 (DE3) Gold cells. Flasks containing […]
(§5) starter culture. Flasks (2000 mL PYREX® narrow-mouth graduated Erlenmeyer flasks or plastic baffled flasks) were incubated at 37 °C and 180 rpm in an Innova® 44 shaker (New Brunswick Scientific). When OD600 reached 0.8-1.0, the temperature was lowered to 18 °C and IPTG was added to a final concentration of 0.25 mM to induce protein expression.
(§6) Cultures were incubated at 18 °C overnight, after which time cultures were harvested by centrifugation in a JA10 rotor in an Avanti J25 centrifuge (Beckman CoulterTM) at 8000 rpm for 15 min at 4 °C. The resulting pellet was weighed and stored in a sealable plastic bag at - 80 °C. Proteins were purified with a 3 mL HisTrapTM chromatography column (GE Healthcare), and Superdex 75 XK 16/600 gel filtration column (GE Healthcare) using standard

BAZ2A [1] = target: T2, BAZ2A (Homo sapiens, UniProt Q9UIF9); assay: AlphaScreen single shot screening, BAZ2A with biotin-H3K14Ac peptide; format: binding; conditions: average of triplicate, BAZ2A 25 nM, biotin-H3 5-24 KAc14 50 nM, read-out: Percentage inhibition of bromodomain-KAc recognition, BAZ2A, H3K14Ac; for inhibition at 250 µM: amino acid 250 μM, <0.5% DMSO
T2 construct: the phylogenetically diverse BAZ2A, BRD4(1), and BRD9 bromodomains; Structural Genomics Consortium (Oxford)
T2 sequence (Q9UIF9 1793-1897 limits assumed): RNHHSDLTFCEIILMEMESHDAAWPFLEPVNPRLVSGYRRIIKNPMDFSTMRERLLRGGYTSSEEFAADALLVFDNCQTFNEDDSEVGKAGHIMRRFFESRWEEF
Excerpt: as §1, §2, §3, §4, §5
as §6, with “Healthcare), and Superdex 75 XK 16/600 gel filtration column (GE Healthcare) using standard” left out
(§7) AlphaScreen assay: AlphaScreen buffer (25 mM HEPES, 100 mM NaCl, 0.05% w/v CHAPS, 0.1% w/v BSA; pH 7.6) was prepared fresh each day, filter sterilization through a 0.22 µm filter, and stored at 4 °C, with equilibration to room temperature before use. Single shot screening against BAZ2A and BRD9A was carried out by the Structural Genomics Consortium (Oxford) as described previously.[12] Biotinylated peptides employed and final assay […]
(§8) biotin-H35-24KAc14 50 nM. Amino acids were tested at 25 µM and 250 µM with <0.5% DMSO.

BRD9 [2] = target: T3, BRD9 (Homo sapiens, UniProt Q9H8M2); assay: AlphaScreen single shot screening, BRD9 with biotin-H2A(KAc)3 peptide; format: binding; conditions: average of triplicate, BRD9 40 nM, biotin-H2A 1-21 KAc9KAc13KAc15 25 nM, read-out: Percentage inhibition of bromodomain-KAc recognition, BRD9, H2(KAc)3; for inhibition at 250 µM: amino acid 250 μM, <0.5% DMSO; for inhibition at 25 µM: amino acid 50 μM as headed in Table 1 (supplement: 25 µM)
T3 construct: the phylogenetically diverse BAZ2A, BRD4(1), and BRD9 bromodomains; Structural Genomics Consortium (Oxford)
T3 sequence (Q9H8M2 136-240 limits assumed): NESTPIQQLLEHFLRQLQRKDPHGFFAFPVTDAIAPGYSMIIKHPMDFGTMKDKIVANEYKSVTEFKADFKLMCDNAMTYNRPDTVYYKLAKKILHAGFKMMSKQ
Excerpt: as §1, §2, §3, §4, §5
as §6, with “Healthcare), and Superdex 75 XK 16/600 gel filtration column (GE Healthcare) using standard” left out
as §7, §8

BAZ2A [3] = target: T2, BAZ2A; assay: AlphaScreen single shot screening, BAZ2A with biotin-H3K14Ac peptide; format: binding; conditions: amino acid 50 μM as headed in Table 1 (supplement: 25 µM), average of triplicate, BAZ2A 25 nM, biotin-H3 5-24 KAc14 50 nM, read-out: Percentage inhibition of bromodomain-KAc recognition, BAZ2A, H3K14Ac
BRD9 [4] = target: T3, BRD9; assay: AlphaScreen single shot screening, BRD9 with biotin-H2A(KAc)3 peptide; format: binding; conditions: amino acid 50 μM as headed in Table 1 (supplement: 25 µM), average of triplicate, BRD9 40 nM, biotin-H2A 1-21 KAc9KAc13KAc15 25 nM, read-out: Percentage inhibition of bromodomain-KAc recognition, BRD9, H2(KAc)3
bromodomain of BRDT = conditions: KAc mimics containing MTCTK; cited from earlier work
Excerpt: Lysine acetylation is a prevalent post‐translational modification (PTM) which plays a fundamental role in regulating protein function.1, 2 Although acetylated lysine (KAc) residues are found throughout the cellular environment,3, 4, 5 it is the role of this PTM in chromatin function which has garnered most recent interest.6 KAc is viewed as one of the “marks” that comprises the epigenetic code,7, 8 and enzymes that write (histone acetyl transferases) and erase (histone deacetylases) this modification are well characterized.9 Neutralization of lysine's positive charge by acetylation weakens the ...

[5] = amino acid 250 μM, buffer blank 0%, 25% DMSO 100% inhibition
[6] = read-out: Percentage inhibition of bromodomain-KAc recognition, BRD4(1), H4(KAc)4, amino acid 50 μM
[7] = read-out: Percentage inhibition of bromodomain-KAc recognition, BRD4(1), H4(KAc)4, amino acid 250 μM, buffer blank 0%, 25% DMSO 100% inhibition

inhibition at 0.004 µM (BRD4(1); [6]) [%] | inhibition at 0.004 µM (BRD4(1); [7]) [%] | inhibition at 250 µM (BAZ2A [1]) [%] | inhibition at 250 µM (BRD9 [2]) [%] | inhibition (BAZ2A [1]) [%] | inhibition at 25 µM (BRD9 [2]) [%] | Compound | other results
 |  |  |  |  |  | CC(=O)NCCCC[C@H](N)C(=O)O [KAc, reference compound] | Percentage inhibition of bromodomain-KAc recognition, BRD4(1), H4(KAc)4 (BRD4(1); amino acid 50 μM): 4.6%
 |  |  |  |  |  | Cc1noc(C)c1-c1cc(O)cc(C(O)c2ccccc2)c1 (stereo not drawn) [compound 2, reference compound] | inhibition by positive control (BRD4(1); included on each plate of the amino acid screen as a positive control, in every case, concentration not given): 100%
 |  |  |  |  |  | Cc1cc(CCC[C@H](N)C(=O)O)on1 [compound 3, (S)-2-Amino-5-(3-methylisoxazol-5-yl)pentanoic acid] | Percentage inhibition of bromodomain-KAc recognition, BRD4(1), H4(KAc)4 (BRD4(1); amino acid 50 μM): 2.3%; Percentage inhibition of bromodomain-KAc recognition, BRD4(1), H4(KAc)4 (BRD4(1); [5]): 16.4%
0.6 | 10.3 |  |  |  |  | Cc1cc(COC[C@H](N)C(=O)O)on1 [compound 4] | 
 |  | 98.7 | 73.6 |  |  | Cc1cc(C(=O)NC[C@H](N)C(=O)O)on1 [compound 5, (S)-2-Amino-3-(3-methylisoxazole-5-carboxamido)propanoic acid] | Percentage inhibition of bromodomain-KAc recognition, BRD4(1), H4(KAc)4 (BRD4(1); amino acid 50 μM): 2.5%; Percentage inhibition of bromodomain-KAc recognition, BRD4(1), H4(KAc)4 (BRD4(1); [5]): 31.2%; inhibition at 50 µM (BAZ2A [3]): 58.1%; inhibition at 50 µM (BRD9 [4]): 28.6%
 |  |  |  |  |  | CSC(=O)NCCSC[C@H](N)C(=O)O [compound 7, methylthiocarbonylthialysine] | interaction with the bromodomain of BRDT compared to KAc (bromodomain of BRDT): two‐ to fourfold less efficiently
18.3 | > 70 | 45.3 | 0.5 | 5.8 | -7.7 | Cc1noc(C)c1-c1cccc(C[C@H](N)C(=O)O)c1 [compound 8] | Percentage inhibition of bromodomain-KAc recognition, BRD4(1), H4(KAc)4 (BRD4(1); [5]): 76.3%
22.7 | 45.8 | 28.1 | 66.5 | 2.6 | -1.7 | Cc1noc(C)c1-c1ccc(C[C@H](N)C(=O)O)cc1 [compound 9] | 
4.1 | 7.5 | 25.1 | -3.1 | 1.4 | -4.8 | Cc1noc(C)c1NC(=O)CC[C@H](N)C(=O)O [compound 10, N5-(3,5-Dimethylisoxazol-4-yl)-L-glutamine] | 
4.7 | 18.5 | 53.8 | -0.1 | 1.9 | -8.1 | Cc1cc(CNC(=O)C[C@H](N)C(=O)O)on1 [compound 11] | 
1.3 | 23.5 | 66.9 | 12.6 | 10.5 | -2.1 | Cc1noc(C)c1NC(=O)C[C@H](N)C(=O)O [compound 12] | 
0.9 | 26.3 | 96.1 | 47.9 | 12.6 | -1 | Cc1cc(NC(=O)C[C@H](N)C(=O)O)no1 [compound 13] | 
 |  | 84.3 | 14.6 | 14.5 | 1.4 | Cc1cc(NC(=O)C[C@H](N)C(=O)O)on1 [compound 14] | 
